From publication PMC4498294, “Tetrahydroisoquinolines affect the whole-cell phenotype of Mycobacterium tuberculosis by inhibiting the ATP-dependent MurE ligase” (Journal of Antimicrobial Chemotherapy, 2015)
Values after ≈ are worked out from the molar mass of the structure shown. Values joined by “and” are separate entries in the source; they are usually repeats but may differ in a detail not shown here. Identical values can stand only once. Like-named read-outs stand apart in the source and are kept apart here.

Key:
[1] = test system: M. bovis BCG Pasteur; experiment: microbe, parasite or virus in culture; assay type: cell-based; details: for MIC: Mycobacterium tuberculosis variant bovis BCG, BCG; for MIC M. bovis BCG: SPOTi, 2 weeks at 37°C
[2] = test system: murine macrophage cell line RAW264.7; experiment: Eukaryotic cell toxicity assay, RAW264.7; assay type: cell-based; details: Mus musculus
[3] = test system: M. tuberculosis H37Rv; experiment: SPOTi growth inhibition assay, M. tuberculosis H37Rv; assay type: cell-based; details: Mycobacterium tuberculosis, H37RV
[4] = molecular target: MurE (Rv2158c) protein of M. tuberculosis H37Rv (Mycobacterium tuberculosis, UniProt P9WJL3); experiment: Mtb-MurE HPLC inhibition assay; assay type: biochemical; details: HPLC assay, 37°C 30 min
[5] = test system: R. equi RHA1; experiment: SPOTi assay, R. equi RHA1; assay type: cell-based, Rhodococcus equi; details: LB, 30°C 48 h
[6] = test system: P. putida; experiment: SPOTi assay, P. putida; assay type: cell-based, Pseudomonas putida; details: LB, 37°C overnight
[7] = test system: E. coli K12; experiment: SPOTi assay, E. coli; assay type: cell-based, Escherichia coli; details: LB, 37°C overnight
[8] = 336 h, read-out: MIC M. bovis BCG, SPOTi, 2 weeks at 37°C
[9] = read-out: MIC M. bovis BCG, SPOTi, value in square brackets
[10] = RAW264.7, value in square brackets, read-out: GIC50 RAW264.7
[11] = murine macrophage cell line RAW264.7, read-out: GIC50 RAW264.7
[12] = SPOTi, value in square brackets, read-out: MIC M. tuberculosis H37Rv
[13] = RAW264.7, read-out: GIC50 RAW264.7
[14] = 336 h, SPOTi, 2 weeks at 37°C, read-out: MIC M. tuberculosis H37Rv

MurE (Rv2158c) protein of M. tuberculosis H37Rv, sequence (P9WJL3 whole entry, looked up): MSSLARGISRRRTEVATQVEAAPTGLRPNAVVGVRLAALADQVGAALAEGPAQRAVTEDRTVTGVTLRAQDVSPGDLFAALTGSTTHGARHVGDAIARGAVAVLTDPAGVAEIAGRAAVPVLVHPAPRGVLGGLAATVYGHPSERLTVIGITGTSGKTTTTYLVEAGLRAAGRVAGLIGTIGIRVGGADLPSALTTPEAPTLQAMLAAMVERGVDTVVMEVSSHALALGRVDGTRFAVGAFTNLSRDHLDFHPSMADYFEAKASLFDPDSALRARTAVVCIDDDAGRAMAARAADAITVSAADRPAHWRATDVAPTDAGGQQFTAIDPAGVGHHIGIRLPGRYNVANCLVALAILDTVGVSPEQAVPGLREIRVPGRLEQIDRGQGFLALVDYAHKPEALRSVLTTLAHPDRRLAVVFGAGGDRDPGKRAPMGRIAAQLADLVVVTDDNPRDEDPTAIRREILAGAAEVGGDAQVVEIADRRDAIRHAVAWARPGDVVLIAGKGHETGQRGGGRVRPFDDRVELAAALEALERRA

## Oc1cc2c(cc1O)C(Cc1ccccc1Br)NCC2 (stereo not shown) [Compound 21]
[1]; [8]
  MIC: > 100 µg/mL
[1]; [9]
  MIC: > 299 µM
[2]; [10]
  IC50: 141 µM
[2]; [11]
  IC50: 47 µg/mL

## COc1ccc(Br)c2c1C(Cc1ccc3c(c1)OCO3)NCC2 (stereo not shown) [Compound 37]
[1]; [8]
  MIC: 30 µg/mL
[1]; [9]
  MIC: 53 µM
[1]
  MIC M. bovis BCG: 20 µg/mL (≈ 53.2 µM)
[3]; 336 h, read-out: MIC M. tuberculosis H37Rv, SPOTi, 2 weeks at 37°C
  MIC: 40 µg/mL
[3]; [12]
  MIC: 106 µM
[4]
  IC50: 165 µM
[2]; [10]
  IC50: 80 µM
[2]; [11]
  IC50: 30 µg/mL

## Oc1cc2c(cc1O)[C@@H](O)CN[C@H]2Cc1ccccc1 [Compound 10]
[1]; [8]
  MIC: > 60 µg/mL
[1]; 336 h, read-out: MIC M. bovis BCG, SPOTi, value in square brackets
  MIC: 271 µM
[1]
  MIC M. bovis BCG: 100 µg/mL (≈ 369 µM)
[2]; [13]
  IC50: > 250 µg/mL and > 566 µM

## Oc1cccc(C2NCCc3cc(O)c(O)cc32)c1 (stereo not shown) [Compound 7]
[1]; [8]
  MIC: > 100 µg/mL
[1]; [9]
  MIC: > 389 µM
[2]; [10]
  IC50: 342 µM
[2]; [11]
  IC50: 88 µg/mL

## Oc1ccc2c(c1)CCNC2Cc1ccccc1 (stereo not shown) [Compound 16]
[1]; [8]
  MIC: > 60 µg/mL
[1]; [9]
  MIC: 418 µM
[1]
  MIC M. bovis BCG: 100 µg/mL (≈ 418 µM)
[2]; [10]
  IC50: 683 µM
[2]; [11]
  IC50: 195 µg/mL

## CC1(C(=O)O)NCCc2cc(O)c(O)cc21 (stereo not shown) [Compound 22]
[1]; [8]
  MIC: > 100 µg/mL
[1]; [9]
  MIC: > 448 µM
[2]; [10]
  IC50: 797 µM
[2]; [11]
  IC50: 178 µg/mL

## Oc1ccc(C2NCCc3cc(O)c(O)cc32)cc1 (stereo not shown) [Compound 6]
[1]; [8]
  MIC: > 100 µg/mL
[1]; [9]
  MIC: > 389 µM
[2]; [10]
  IC50: 358 µM
[2]; [11]
  IC50: 92 µg/mL

## COc1cc(CC2NCCc3cc(O)c(O)cc32)ccc1O (stereo not shown) [Compound 19]
[1]; [8]
  MIC: > 100 µg/mL
[1]; [9]
  MIC: > 332 µM
[2]; [10]
  IC50: 166 µM
[2]; [11]
  IC50: 50 µg/mL

## CN1C[C@H](O)c2cc(O)c(O)cc2[C@H]1c1cccc2c1OCO2 [Compound 32]
[1]; [8]
  MIC: > 100 µg/mL
[1]; [9]
  MIC: > 317 µM
[2]; [10]
  IC50: 574 µM
[2]; [11]
  IC50: 181 µg/mL

## Oc1cc2c(cc1O)C(c1cccs1)NCC2 (stereo not shown) [Compound 9]
[1]; [8]
  MIC: > 100 µg/mL
[1]; [9]
  MIC: > 404 µM
[2]; [13]
  IC50: 56 µg/mL and 226 µM

## Nc1ccc2c(c1)CCNC2Cc1ccccc1 (stereo not shown) [Compound 15]
[1]; [8]
  MIC: > 100 µg/mL
[1]; [9]
  MIC: > 420 µM
[2]; [10]
  IC50: 789 µM
[2]; [11]
  IC50: 188 µg/mL

## COc1ccc(C2NCCc3cc(O)c(O)cc32)cc1 (stereo not shown) [Compound 5]
[1]; [8]
  MIC: > 100 µg/mL
[1]; [9]
  MIC: > 369 µM
[2]; [10]
  IC50: 335 µM
[2]; [11]
  IC50: 91 µg/mL

## COc1cc2c(c(O)c1OC)C[C@H]1c3c(cc4c(c3-2)OCO4)CCN1C [(S)-Leucoxine (1), (S)-Leucoxine]
[1]; [8]
  MIC: 25 µg/mL
[1]; [9]
  MIC: 70 µM
[3]; [14]
  MIC: 30 µg/mL
[3]; [12]
  MIC: 84 µM
[4]
  IC50: 820 µM
[2]; [10]
  IC50: 352 µM
[2]; [11]
  IC50: 125 µg/mL

## O=C(O)[C@@H]1Cc2cc(O)c(O)cc2C(Cc2ccc3c(c2)OCO3)N1 (stereo partly shown) [Compound 26]
[1]; [8]
  MIC: > 100 µg/mL
[1]; [9]
  MIC: > 291 µM
[2]; [10]
  IC50: 533 µM
[2]; [11]
  IC50: 183 µg/mL

## O=C(O)[C@@H]1Cc2cc(O)c(O)cc2[C@@H](Cc2ccccc2)N1 [Compound 11]
[1]; [8]
  MIC: > 100 µg/mL
[1]; [9]
  MIC: > 334 µM
[2]; [10]
  IC50: 291 µM
[2]; [11]
  IC50: 87 µg/mL

## COc1ccc(I)c2c1C(Cc1ccc3c(c1)OCO3)NCC2 (stereo not shown) [Compound 38]
[1]; [8]
  MIC: 50 µg/mL
[1]; [9]
  MIC: 118 µM
[3]; [14]
  MIC: 30 µg/mL
[3]; [12]
  MIC: 71 µM
[4]
  IC50: < 111 µM
[2]; [10]
  IC50: 66 µM
[2]; [11]
  IC50: 28 µg/mL

## Oc1cc2c(cc1O)C(c1ccccn1)NCC2 (stereo not shown) [Compound 4]
[1]; [8]
  MIC: > 100 µg/mL
[1]; [9]
  MIC: > 413 µM
[2]; [10]
  IC50: 248 µM
[2]; [11]
  IC50: 60 µg/mL

## CN1C[C@H](O)c2cc(O)c(O)cc2[C@@H]1c1cccc2c1OCO2 [Compound 31]
[1]; [8]
  MIC: > 100 µg/mL
[1]; [9]
  MIC: > 317 µM
[2]; [10]
  IC50: 434 µM
[2]; [11]
  IC50: 137 µg/mL

## Oc1cc2c(cc1O)C(c1cccc3c1OCO3)NCC2 (stereo not shown) [Compound 29]
[1]; [8]
  MIC: > 100 µg/mL
[1]; [9]
  MIC: > 351 µM
[4]
  IC50: 471 µM
[2]; [10]
  IC50: 263 µM
[2]; [11]
  IC50: 75 µg/mL

## CC(C)=CCC[C@H](C)CC1NCCc2cc(O)c(O)cc21 (stereo partly shown) [Compound 13]
[1]; [8]
  MIC: > 60 µg/mL
[1]; [9]
  MIC: 346 µM
[1]
  MIC M. bovis BCG: 100 µg/mL (≈ 346 µM)
[2]; [10]
  IC50: > 864 µM
[2]; [11]
  IC50: > 250 µg/mL

## COc1ccc(CC2NCCc3cc(O)c(O)cc32)cc1OC (stereo not shown) [Compound 18]
[1]; [8]
  MIC: > 100 µg/mL
[1]; [9]
  MIC: > 317 µM
[2]; [10]
  IC50: 178 µM
[2]; [11]
  IC50: 56 µg/mL

## Oc1cc2c(cc1O)C(c1ccccc1O)NCC2 (stereo not shown) [Compound 8]
[1]; [8]
  MIC: > 100 µg/mL
[1]; [9]
  MIC: > 389 µM
[2]; [10]
  IC50: 338 µM
[2]; [11]
  IC50: 87 µg/mL

## Oc1cc2c(cc1O)C(C1CCCCC1)NCC2 (stereo not shown) [Compound 23]
[1]; [8]
  MIC: > 100 µg/mL
[1]; [9]
  MIC: > 404 µM
[3]; [14]
  MIC: > 100 µg/mL
[3]; [12]
  MIC: > 404 µM
[2]; [10]
  IC50: 182 µM
[2]; [11]
  IC50: 45 µg/mL

## Oc1cc2c(cc1O)[C@@H](O)CNC2c1cccc2c1OCO2 (stereo partly shown) [Compound 30]
[1]; [8]
  MIC: > 100 µg/mL
[1]; [9]
  MIC: > 332 µM
[2]; [10]
  IC50: 295 µM
[2]; [11]
  IC50: 89 µg/mL

## NC[C@H]1O[C@H](O[C@H]2[C@H](O)[C@@H](O[C@H]3O[C@H](CO)[C@@H](O)[C@H](N)[C@H]3O)[C@H](N)C[C@@H]2N)[C@H](O)[C@@H](O)[C@@H]1O [Kanamycin, reference compound]
[5]
  MIC R. equi RHA1: 1 µg/mL (≈ 2.06 µM)
[6]
  MIC P. putida: 10 µg/mL (≈ 20.6 µM)
[7]
  MIC E. coli K12: 1 µg/mL (≈ 2.06 µM)

## Oc1ccc(CC2NCCc3cc(O)c(O)cc32)cc1 (stereo not shown) [Norcoclaurine (2), Norcoclaurine]
[1]; [8]
  MIC: > 100 µg/mL
[1]; [9]
  MIC: > 369 µM
[4]
  IC50: 837 µM
[2]; [10]
  IC50: 1570 µM
[2]; [11]
  IC50: 425 µg/mL

## Oc1cccc(CC2NCCc3cc(O)c(O)cc32)c1 (stereo not shown) [Compound 17]
[1]; [8]
  MIC: > 100 µg/mL
[1]; [9]
  MIC: > 369 µM
[2]; [10]
  IC50: 236 µM
[2]; [11]
  IC50: 64 µg/mL

## Oc1cc2c(cc1O)C(Cc1ccccc1)NCC2 (stereo not shown) [Compound 3]
[1]; [8]
  MIC: > 100 µg/mL
[1]; [9]
  MIC: > 392 µM
[2]; [10]
  IC50: 313 µM
[2]; [11]
  IC50: 81 µg/mL

## Oc1ccc2c(c1)CCNC2c1cccc2c1OCO2 (stereo not shown) [Compound 34]
[1]; [8]
  MIC: > 100 µg/mL
[1]; [9]
  MIC: > 371 µM
[4]
  IC50: > 1000 µM
[2]; [10]
  IC50: 672 µM
[2]; [11]
  IC50: 181 µg/mL

## OC[C@@H](O)[C@@H]1NCCc2cc(O)c(O)cc21 [Compound 14]
[1]; [8]
  MIC: > 100 µg/mL
[1]; [9]
  MIC: > 444 µM
[2]; [10]
  IC50: 377 µM
[2]; [11]
  IC50: 85 µg/mL

## Oc1cc2c(cc1O)C(c1cncc3ccccc13)NCC2 (stereo not shown) [Compound 12]
[1]; [8]
  MIC: > 100 µg/mL
[1]; [9]
  MIC: > 342 µM
[2]; [10]
  IC50: > 855 µM
[2]; [11]
  IC50: > 250 µg/mL

## Oc1cc2c(c(O)c1O)C(c1cccc3c1OCO3)NCC2 (stereo not shown) [Compound 33]
[1]; [8]
  MIC: > 100 µg/mL
[1]; [9]
  MIC: > 332 µM
[4]
  IC50: 148 µM
[2]; [10]
  IC50: 18 µM
[2]; [11]
  IC50: 5.5 µg/mL

## COc1cccc2c1C(Cc1ccc3c(c1)OCO3)NCC2 (stereo not shown) [Compound 40]
[1]; [8]
  MIC: > 50 µg/mL
[1]; [9]
  MIC: > 168 µM
[3]; [14]
  MIC: > 100 µg/mL
[3]; [12]
  MIC: > 336 µM
[4]
  IC50: 300 µM
[2]; [10]
  IC50: 740 µM
[2]; [11]
  IC50: 220 µg/mL

## Oc1ccc2c(c1)CCNC2Cc1ccc2c(c1)OCO2 (stereo not shown) [Compound 27]
[1]; [8]
  MIC: 100 µg/mL
[1]; [9]
  MIC: 353 µM
[4]
  IC50: > 1000 µM
[2]; [10]
  IC50: 529 µM
[2]; [11]
  IC50: 150 µg/mL

## C[C@@H]1NC(Cc2ccc3c(c2)OCO3)c2ccc(O)cc2[C@H]1O (stereo partly shown) [Compound 25]
[1]; [8]
  MIC: > 100 µg/mL
[1]; [9]
  MIC: > 319 µM
[2]; [10]
  IC50: 578 µM
[2]; [11]
  IC50: 181 µg/mL
